In patent US12642270B2, “Substituted thiophene carboxamides, thiophene carboxylic acids and derivatives thereof” (Bayer Aktiengesellschaft, priority 2019, dated 2026) one finds LogP data, which are given here for 87 compounds.

One series in a line: Log P by HPLC on reversed phase columns (EEC directive 79/831 Annex V.A8). The class given is physicochemical. The settings on record: LogP method [a]; compounds of formula (I), Table 1.1. A digest of the protocol:
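Reversed-phase HPLC per EEC 79/831 Annex V.A8, LC-UV with 10→95% acetonitrile linear gradient; eluent [a] 0.1% formic acid (acidic), [b] 0.001 M ammonium acetate (neutral), [c] 0.1% phosphoric acid (acidic). Calibrated with C3–C16 straight-chain alkan-2-ones, linear interpolation of retention times; multiple values joined by "+".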
For `CCOC(=O)C1(NC(=O)c2cc(C#N)c(Br)s2)CC1` [1.0401], the LogP was 2.30^[a].

The series is the same for the next values; noted with them: method marked [a].
For `CCOC(=O)C(CCSC)NC(=O)c1cc(F)c(Cl)s1` (stereo not drawn) [1.0310], the LogP is 3.25^[a].
Consider `CCOC(=O)CNC(=O)c1cc(Br)c(F)s1` [1.0311], for which the LogP is 2.33^[a].
In the case of `CCOC(=O)C1(NC(=O)c2cc(Br)c(F)s2)CC1` [1.0312], the LogP is 2.57^[a].
On to `CCOC(=O)C(NC(=O)c1cc(Br)c(F)s1)C(C)C` (stereo not drawn) [1.0313], for which the LogP was 3.54^[a].
In the case of `CCOC(=O)C(CCSC)NC(=O)c1cc(Br)c(F)s1` (stereo not drawn) [1.0314], the LogP was 3.31^[a].
Regarding `CCOC(=O)C(Cc1ccccc1)NC(=O)c1cc(Br)c(F)s1` (stereo not drawn) [1.0315], the LogP is 3.77^[a].
As for `COC(=O)CNC(=O)c1sc(F)c(Br)c1C` [1.0316], the LogP is 2.31^[a].
For the compound `CCOC(=O)CNC(=O)c1sc(F)c(Br)c1C` [1.0317], the LogP is 2.67^[a].
With `CCOC(=O)C1(NC(=O)c2sc(F)c(Br)c2C)CC1` [1.0318], the LogP was 2.83^[a].
For the compound `CCOC(=O)C(NC(=O)c1sc(F)c(Br)c1C)C(C)C` (stereo not drawn) [1.0319], the LogP was 3.94^[a].
Still for that read-out and setting: with `CCOC(=O)C(CCSC)NC(=O)c1sc(F)c(Br)c1C` (stereo not drawn) [1.0320] the figure was 3.67^[a].
The same measure, in the same setting: with `CCOC(=O)C(Cc1ccccc1)NC(=O)c1sc(F)c(Br)c1C` (stereo not drawn) [1.0321] the figure was 4.23^[a]; with `CCOC(=O)C1(NC(=S)c2sc(Cl)c(Cl)c2Br)CC1` [1.0323], 4.51^[a].
Still for that read-out and setting: under `O=C(NC1(C(=O)O)CC1)c1sc(Cl)c(Br)c1Cl` [1.0324] stands 2.41^[a]; under `CCOC(=O)C1(NC(=S)c2sc(Cl)c(Br)c2Cl)CC1` [1.0325], 4.55^[a].
On to `CCOC(=O)CN(OC)C(=O)c1sc(Br)c(Br)c1F` [1.0327], for which the LogP was 3.37^[a].
Still for that read-out and setting: with `COC(=O)C1(NC(=S)c2sc(Br)c(Br)c2F)CC1` [1.0328] the figure was 3.91^[a].
Regarding `O=C(O)C1(NC(=S)c2sc(Br)c(Br)c2F)CC1` [1.0329], the LogP is 2.95^[a].
As to `COC(=O)[C@H](CCC(=O)O)NC(=O)c1sc(Br)c(Br)c1F` [1.0330], the LogP was 2.36^[a].
As to `CCOC(=O)C1(NC(=S)c2sc(Br)c(Br)c2F)CCC1` [1.0331], the LogP was 4.74^[a].
On the same count and under the same terms, under `COC(=O)C1(NC(=S)c2sc(Cl)c(Br)c2C)CC1` [1.0332] stands 3.71^[a]; under `COC(=O)C1(NC(=S)c2sc(Br)c(Br)c2Cl)CC1` [1.0333], 4.11^[a].
On the same count and under the same terms, with `COC(=O)C1(NC(=S)c2sc(Cl)c(Cl)c2Br)CC1` [1.0334] the figure was 4.06^[a].
`COC(=O)C1(NC(=S)c2sc(C#N)c(Br)c2C)CC1` [1.0335]: the LogP was 3.10^[a].
Regarding `COC(=O)C1(NC(=S)c2cc(Br)c(C#N)s2)CC1` [1.0336], the LogP was 3.03^[a].
For `O=C(NC(CC(F)F)C(=O)O)c1sc(Cl)c(Cl)c1Br` (stereo not drawn) [1.0337], the LogP was 2.81^[a].
Same read-out and setting: with `CCOC(=O)C1(NC(=O)c2sc(Br)c(Br)c2C(F)F)CC1` [1.0341] the figure was 3.20^[a].
On the same count and under the same terms, with `N#CCNC(=O)c1sc(Cl)c(Cl)c1F` [1.0342] the figure was 2.30^[a].
Consider `COC(=O)CNC(=O)c1sc(Cl)c(Cl)c1F` [1.0343], for which the LogP was 2.43^[a].
On the same count and under the same terms, with `CCOC(=O)CNC(=O)c1sc(Cl)c(Cl)c1F` [1.0344] the figure was 2.83^[a].
On to `CCOC(=O)C(C)NC(=O)c1sc(Cl)c(Cl)c1F` (stereo not drawn) [1.0345], for which the LogP is 3.34^[a].
As for `COC(=O)C(NC(=O)c1sc(Cl)c(Cl)c1F)C1CC1` (stereo not drawn) [1.0346], the LogP was 3.36^[a].
The same measure, in the same setting: under `CCOC(=O)C1(NC(=O)c2sc(Cl)c(Cl)c2F)CCC1` [1.0347] stands 3.70^[a].
The same measure, in the same setting: under `CCOC(=O)C(NC(=O)c1sc(Cl)c(Cl)c1F)C(C)C` (stereo not drawn) [1.0348] stands 4.37^[a]; under `COC(=O)C(CC(F)F)NC(=O)c1sc(Cl)c(Cl)c1F` (stereo not drawn) [1.0349], 3.19^[a].
Same read-out and setting: under `CCOC(=O)C(CC(C)C)NC(=O)c1sc(Cl)c(Cl)c1F` (stereo not drawn) [1.0350] stands 4.63^[a]; under `CCOC(=O)C(CCSC)NC(=O)c1sc(Cl)c(Cl)c1F` (stereo not drawn) [1.0351], 3.95^[a]; under `CCOC(=O)C(Cc1ccccc1)NC(=O)c1sc(Cl)c(Cl)c1F` (stereo not drawn) [1.0352], 4.47^[a].
Consider `N#CCNC(=O)c1sc(Br)c(Br)c1C(F)F` [1.0353], for which the LogP is 2.54^[a].
`COC(=O)CNC(=O)c1sc(Br)c(Br)c1C(F)F` [1.0354]: the LogP was 2.66^[a].
Still for that read-out and setting: with `CCOC(=O)CNC(=O)c1sc(Br)c(Br)c1C(F)F` [1.0355] the figure was 3.01^[a]; with `COC(=O)C1(NC(=O)c2sc(Br)c(Br)c2C(F)F)CC1` [1.0356], 2.86^[a].
Still for that read-out and setting: under `CCOC(=O)C(C)NC(=O)c1sc(Br)c(Br)c1C(F)F` (stereo not drawn) [1.0357] stands 3.35^[a]; under `COC(=O)C(NC(=O)c1sc(Br)c(Br)c1C(F)F)C1CC1` (stereo not drawn) [1.0358], 3.37^[a]; under `CCOC(=O)C1(NC(=O)c2sc(Br)c(Br)c2C(F)F)CCC1` [1.0359], 3.67^[a].
Regarding `CCOC(=O)C(NC(=O)c1sc(Br)c(Br)c1C(F)F)C(C)C` (stereo not drawn) [1.0360], the LogP is 4.16^[a].
For `COC(=O)C(CC(F)F)NC(=O)c1sc(Br)c(Br)c1C(F)F` (stereo not drawn) [1.0361], the LogP is 3.28^[a].
As to `CCOC(=O)C(CC(C)C)NC(=O)c1sc(Br)c(Br)c1C(F)F` (stereo not drawn) [1.0362], the LogP was 4.45^[a].
The same measure, in the same setting: with `CCOC(=O)C(CCSC)NC(=O)c1sc(Br)c(Br)c1C(F)F` (stereo not drawn) [1.0363] the figure was 3.89^[a].
On the same count and under the same terms, under `CCOC(=O)C(Cc1ccccc1)NC(=O)c1sc(Br)c(Br)c1C(F)F` (stereo not drawn) [1.0364] stands 4.34^[a]; under `N#CCNC(=O)c1sc(Br)c(Br)c1C(F)(F)F` [1.0365], 2.61^[a]; under `COC(=O)CNC(=O)c1sc(Br)c(Br)c1C(F)(F)F` [1.0366], 2.71^[a].
Take `CCOC(=O)CNC(=O)c1sc(Br)c(Br)c1C(F)(F)F` [1.0367]: the LogP is 3.05^[a].
The same measure, in the same setting: with `COC(=O)C1(NC(=O)c2sc(Br)c(Br)c2C(F)(F)F)CC1` [1.0368] the figure was 2.93^[a]; with `CCOC(=O)C(C)NC(=O)c1sc(Br)c(Br)c1C(F)(F)F` (stereo not drawn) [1.0369], 3.35^[a].
On to `CCOC(=O)C1(NC(=O)c2sc(Br)c(Br)c2C(F)(F)F)CC1` [1.0370], for which the LogP is 3.26^[a].
Still for that read-out and setting: with `COC(=O)C(NC(=O)c1sc(Br)c(Br)c1C(F)(F)F)C1CC1` (stereo not drawn) [1.0371] the figure was 3.37^[a]; with `CCOC(=O)C1(NC(=O)c2sc(Br)c(Br)c2C(F)(F)F)CCC1` [1.0372], 3.67^[a].
On the same count and under the same terms, with `CCOC(=O)C(NC(=O)c1sc(Br)c(Br)c1C(F)(F)F)C(C)C` (stereo not drawn) [1.0373] the figure was 4.09^[a]; with `COC(=O)C(CC(F)F)NC(=O)c1sc(Br)c(Br)c1C(F)(F)F` (stereo not drawn) [1.0374], 3.31^[a]; with `CCOC(=O)C(CC(C)C)NC(=O)c1sc(Br)c(Br)c1C(F)(F)F` (stereo not drawn) [1.0375], 4.38^[a].
The same measure, in the same setting: under `CCOC(=O)C(CCSC)NC(=O)c1sc(Br)c(Br)c1C(F)(F)F` (stereo not drawn) [1.0376] stands 3.87^[a]; under `CCOC(=O)C(Cc1ccccc1)NC(=O)c1sc(Br)c(Br)c1C(F)(F)F` (stereo not drawn) [1.0377], 4.31^[a].
Consider `COC(=O)CNC(=O)c1cc(C#N)c(Cl)s1` [1.0378], for which the LogP was 1.75^[a].
Take `CCOC(=O)CNC(=O)c1cc(C#N)c(Cl)s1` [1.0379]: the LogP is 2.08^[a].
As to `CCOC(=O)C1(NC(=O)c2cc(C#N)c(Cl)s2)CC1` [1.0380], the LogP was 2.28^[a].
Same read-out and setting: under `COC(=O)C(NC(=O)c1cc(C#N)c(Cl)s1)C1CC1` (stereo not drawn) [1.0381] stands 2.47^[a].
Regarding `CCOC(=O)C(NC(=O)c1cc(C#N)c(Cl)s1)C(C)C` (stereo not drawn) [1.0382], the LogP is 3.20^[a].
Same read-out and setting: with `CCOC(=O)C(CCSC)NC(=O)c1cc(C#N)c(Cl)s1` (stereo not drawn) [1.0383] the figure was 3.01^[a]; with `CCOC(=O)C(Cc1ccccc1)NC(=O)c1cc(C#N)c(Cl)s1` (stereo not drawn) [1.0384], 3.47^[a]; with `COC(=O)CNC(=O)c1cc(Cl)c(C#N)s1` [1.0385], 1.77^[a].
On to `CCOC(=O)CNC(=O)c1cc(Cl)c(C#N)s1` [1.0386], for which the LogP was 2.10^[a].
Same read-out and setting: with `CCOC(=O)C1(NC(=O)c2cc(Cl)c(C#N)s2)CC1` [1.0387] the figure was 2.32^[a]; with `COC(=O)C(NC(=O)c1cc(Cl)c(C#N)s1)C1CC1` (stereo not drawn) [1.0388], 2.50^[a]; with `CCOC(=O)C(NC(=O)c1cc(Cl)c(C#N)s1)C(C)C` (stereo not drawn) [1.0389], 3.22^[a].
Turning to `CCOC(=O)C(CCSC)NC(=O)c1cc(Cl)c(C#N)s1` (stereo not drawn) [1.0390], the LogP was 3.03^[a].
Regarding `CCOC(=O)C(Cc1ccccc1)NC(=O)c1cc(Cl)c(C#N)s1` (stereo not drawn) [1.0391], the LogP is 3.48^[a].
The same measure, in the same setting: under `COC(=O)CNC(=O)c1sc(Cl)c(C#N)c1Cl` [1.0392] stands 2.16^[a]; under `CCOC(=O)CNC(=O)c1sc(Cl)c(C#N)c1Cl` [1.0393], 2.54^[a]; under `CCOC(=O)C1(NC(=O)c2sc(Cl)c(C#N)c2Cl)CC1` [1.0394], 2.69^[a].
`COC(=O)C(NC(=O)c1sc(Cl)c(C#N)c1Cl)C1CC1` (stereo not drawn) [1.0395]: the LogP was 2.97^[a].
The same measure, in the same setting: under `CCOC(=O)C(NC(=O)c1sc(Cl)c(C#N)c1Cl)C(C)C` (stereo not drawn) [1.0396] stands 3.81^[a]; under `CCOC(=O)C(CCSC)NC(=O)c1sc(Cl)c(C#N)c1Cl` (stereo not drawn) [1.0397], 3.52^[a].
Still for that read-out and setting: with `CCOC(=O)C(Cc1ccccc1)NC(=O)c1sc(Cl)c(C#N)c1Cl` (stereo not drawn) [1.0398] the figure was 4.05^[a].
The same measure, in the same setting: with `COC(=O)CNC(=O)c1cc(C#N)c(Br)s1` [1.0399] the figure was 1.79^[a]; with `CCOC(=O)CNC(=O)c1cc(C#N)c(Br)s1` [1.0400], 2.11^[a].
